Here are results for four compounds from ChEMBL document CHEMBL1126257, “Fluoronaphthyridines and -quinolones as antibacterial agents. 5. Synthesis and antimicrobial activity of chiral 1-tert-butyl-6-fluoro-7-substituted-naphthyridones” (J Med Chem, 1992).

In brackets after ≈: the same amount, converted by molar mass.

In the first assay the test system is Morganella morganii. The assay can be described thus: In vitro antibacterial activity against Morganella morganii A 15153. Format: functional. Conditions: Morganella morganii; read-out: MIC.
`CC1(C)CN(c2nc3c(cc2F)c(=O)c(C(=O)O)cn3C(C)(C)C)C[C@H]1N`: the minimal inhibitory concentration (MIC) is 0.5 µg/mL (≈ 1.33 µM).

Take `C[C@@H]1C[C@H](N)CN1c1nc2c(cc1F)c(=O)c(C(=O)O)cn2C(C)(C)C`: the MIC is 2 µg/mL (≈ 5.52 µM).

As for `CC1(C)CN(c2nc3c(cc2F)c(=O)c(C(=O)O)cn3C(C)(C)C)C[C@@H]1N`, the minimal inhibitory concentration (MIC) is 0.25 µg/mL (≈ 0.664 µM).

With `CC(C)(C)n1cc(C(=O)O)c(=O)c2cc(F)c(N3CC[C@@H](N)C3)nc21`, the minimum inhibitory concentration (MIC) turned out to be 0.25 µg/mL (≈ 0.718 µM).

The test system of the next assay is Klebsiella pneumoniae. The experiment in a line: In vitro antibacterial activity against Klebsiella pneumoniae A 9664. Type of assay: functional. The following applies: Klebsiella pneumoniae; read-out: MIC.
Take `CC1(C)CN(c2nc3c(cc2F)c(=O)c(C(=O)O)cn3C(C)(C)C)C[C@H]1N`: the minimum inhibitory concentration (MIC) was 0.13 µg/mL (≈ 0.345 µM).

Regarding `C[C@@H]1C[C@H](N)CN1c1nc2c(cc1F)c(=O)c(C(=O)O)cn2C(C)(C)C`, the minimum inhibitory concentration (MIC) worked out at 0.25 µg/mL (≈ 0.69 µM).

Take `CC1(C)CN(c2nc3c(cc2F)c(=O)c(C(=O)O)cn3C(C)(C)C)C[C@@H]1N`: the MIC turned out to be 0.25 µg/mL (≈ 0.664 µM).

Take `CC(C)(C)n1cc(C(=O)O)c(=O)c2cc(F)c(N3CC[C@@H](N)C3)nc21`: the MIC was 0.13 µg/mL (≈ 0.373 µM).

The next assay has as its system Enterococcus faecium. The assay can be described thus: In vitro antibacterial activity against Enterococcus faecium A 24885. Format: functional. The following applies: Enterococcus faecium; read-out: MIC.
Turning to `CC1(C)CN(c2nc3c(cc2F)c(=O)c(C(=O)O)cn3C(C)(C)C)C[C@H]1N`, the MIC stood at 2 µg/mL (≈ 5.31 µM).

With `C[C@@H]1C[C@H](N)CN1c1nc2c(cc1F)c(=O)c(C(=O)O)cn2C(C)(C)C`, the MIC was 2 µg/mL (≈ 5.52 µM).

As for `CC1(C)CN(c2nc3c(cc2F)c(=O)c(C(=O)O)cn3C(C)(C)C)C[C@@H]1N`, the MIC amounted to 4 µg/mL (≈ 10.6 µM).

With `CC(C)(C)n1cc(C(=O)O)c(=O)c2cc(F)c(N3CC[C@@H](N)C3)nc21`, the minimum inhibitory concentration (MIC) came out at 1 µg/mL (≈ 2.87 µM).

In the next assay the test system is Enterobacter cloacae. The experiment in a line: In vitro antibacterial activity against Enterobacter cloacae A 9656. Type of assay: functional. Conditions: Enterobacter cloacae; read-out: MIC.
On to `CC1(C)CN(c2nc3c(cc2F)c(=O)c(C(=O)O)cn3C(C)(C)C)C[C@H]1N`, for which the MIC turned out to be 0.03 µg/mL (≈ 0.0797 µM).

With `C[C@@H]1C[C@H](N)CN1c1nc2c(cc1F)c(=O)c(C(=O)O)cn2C(C)(C)C`, the MIC amounted to 0.25 µg/mL (≈ 0.69 µM).

As to `CC1(C)CN(c2nc3c(cc2F)c(=O)c(C(=O)O)cn3C(C)(C)C)C[C@@H]1N`, the minimal inhibitory concentration (MIC) is 0.25 µg/mL (≈ 0.664 µM).

In the case of `CC(C)(C)n1cc(C(=O)O)c(=O)c2cc(F)c(N3CC[C@@H](N)C3)nc21`, the MIC came to 0.06 µg/mL (≈ 0.172 µM).

A further assay has as its system Escherichia coli. The experiment in a line: In vitro antibacterial activity against Escherichia coli A 15119. Type of assay: functional. The following applies: Escherichia coli; read-out: MIC.
For the compound `CC1(C)CN(c2nc3c(cc2F)c(=O)c(C(=O)O)cn3C(C)(C)C)C[C@H]1N`, the minimum inhibitory concentration (MIC) came to 0.06 µg/mL (≈ 0.159 µM).

For `C[C@@H]1C[C@H](N)CN1c1nc2c(cc1F)c(=O)c(C(=O)O)cn2C(C)(C)C`, the minimum inhibitory concentration (MIC) was 0.25 µg/mL (≈ 0.69 µM).

As for `CC1(C)CN(c2nc3c(cc2F)c(=O)c(C(=O)O)cn3C(C)(C)C)C[C@@H]1N`, the MIC turned out to be 0.06 µg/mL (≈ 0.159 µM).

`CC(C)(C)n1cc(C(=O)O)c(=O)c2cc(F)c(N3CC[C@@H](N)C3)nc21`: the MIC worked out at 0.06 µg/mL (≈ 0.172 µM).

A further assay concerns Pseudomonas aeruginosa. The experiment in a line: In vitro antibacterial activity against Pseudomonas aeruginosa A 9243. Type of assay: functional. Conditions: Pseudomonas aeruginosa; read-out: MIC.
In the case of `CC1(C)CN(c2nc3c(cc2F)c(=O)c(C(=O)O)cn3C(C)(C)C)C[C@H]1N`, the MIC stood at 2 µg/mL (≈ 5.31 µM).

Turning to `C[C@@H]1C[C@H](N)CN1c1nc2c(cc1F)c(=O)c(C(=O)O)cn2C(C)(C)C`, the MIC came to 8 µg/mL (≈ 22.1 µM).

In the case of `CC1(C)CN(c2nc3c(cc2F)c(=O)c(C(=O)O)cn3C(C)(C)C)C[C@@H]1N`, the MIC was found to be 4 µg/mL (≈ 10.6 µM).

In the case of `CC(C)(C)n1cc(C(=O)O)c(=O)c2cc(F)c(N3CC[C@@H](N)C3)nc21`, the MIC was determined as 0.25 µg/mL (≈ 0.718 µM).

The test system of another assay is Staphylococcus aureus. The experiment in a line: In vitro antibacterial activity against Staphylococcus aureus A9537. The following applies: Staphylococcus aureus; read-out: MIC. Format: functional.
`CC1(C)CN(c2nc3c(cc2F)c(=O)c(C(=O)O)cn3C(C)(C)C)C[C@H]1N`: the MIC worked out at 0.015 µg/mL (≈ 0.0398 µM).

With `C[C@@H]1C[C@H](N)CN1c1nc2c(cc1F)c(=O)c(C(=O)O)cn2C(C)(C)C`, the minimum inhibitory concentration (MIC) was determined as 0.13 µg/mL (≈ 0.359 µM).

Turning to `CC1(C)CN(c2nc3c(cc2F)c(=O)c(C(=O)O)cn3C(C)(C)C)C[C@@H]1N`, the MIC was determined as 0.03 µg/mL (≈ 0.0797 µM).

For the compound `CC(C)(C)n1cc(C(=O)O)c(=O)c2cc(F)c(N3CC[C@@H](N)C3)nc21`, the MIC worked out at 0.015 µg/mL (≈ 0.0431 µM).

The test system of a further assay is Enterococcus faecalis. The assay can be described thus: In vitro antibacterial activity against Enterococcus faecalis A9809. Type of assay: functional. Conditions: Enterococcus faecalis; read-out: MIC.
With `CC1(C)CN(c2nc3c(cc2F)c(=O)c(C(=O)O)cn3C(C)(C)C)C[C@H]1N`, the MIC stood at 0.25 µg/mL (≈ 0.664 µM).

As to `C[C@@H]1C[C@H](N)CN1c1nc2c(cc1F)c(=O)c(C(=O)O)cn2C(C)(C)C`, the MIC was determined as 0.5 µg/mL (≈ 1.38 µM).

In the case of `CC1(C)CN(c2nc3c(cc2F)c(=O)c(C(=O)O)cn3C(C)(C)C)C[C@@H]1N`, the MIC stood at 4 µg/mL (≈ 10.6 µM).

As for `CC(C)(C)n1cc(C(=O)O)c(=O)c2cc(F)c(N3CC[C@@H](N)C3)nc21`, the minimum inhibitory concentration (MIC) is 0.13 µg/mL (≈ 0.373 µM).

Another assay has as its system Escherichia coli. The experiment in a line: In vivo potency on systemic infection caused Escherichia coli A 15119 by after oral administration to mice expressed as median protective dose. Format: functional. Conditions: read-out: PD50.
On to `CC(C)(C)n1cc(C(=O)O)c(=O)c2cc(F)c(N3CC[C@@H](N)C3)nc21`, for which the ED50 was 4.9 mg/kg.

Another assay concerns Klebsiella pneumoniae. The assay can be described thus: In vivo potency on systemic infection caused by Klebsiella pneumoniae A 9664 after oral administration to mice expressed as median protective dose. Format: functional. The following applies: read-out: PD50.
For the compound `CC(C)(C)n1cc(C(=O)O)c(=O)c2cc(F)c(N3CC[C@@H](N)C3)nc21`, the ED50 was 4.9 mg/kg.

A further assay concerns Serratia marcescens. The assay can be described thus: In vitro antibacterial activity against Serratia marcescens A 20019. Format: functional. The following applies: Serratia marcescens; read-out: MIC.
In the case of `CC1(C)CN(c2nc3c(cc2F)c(=O)c(C(=O)O)cn3C(C)(C)C)C[C@H]1N`, the minimum inhibitory concentration (MIC) was determined as 0.5 µg/mL (≈ 1.33 µM).

Take `C[C@@H]1C[C@H](N)CN1c1nc2c(cc1F)c(=O)c(C(=O)O)cn2C(C)(C)C`: the MIC was determined as 2 µg/mL (≈ 5.52 µM).

`CC1(C)CN(c2nc3c(cc2F)c(=O)c(C(=O)O)cn3C(C)(C)C)C[C@@H]1N`: the MIC is 0.25 µg/mL (≈ 0.664 µM).

As to `CC(C)(C)n1cc(C(=O)O)c(=O)c2cc(F)c(N3CC[C@@H](N)C3)nc21`, the MIC stood at 0.25 µg/mL (≈ 0.718 µM).

In general, MIC refers to the smallest concentration in the dilution series that meets the test's criterion for growth inhibition.
